{
  "source": "patent US8426673B2",
  "about": "“Pathological animal model for pelvic pain syndrome” (Astellas Pharma, Inc., priority 2008, dated 2013)",
  "molecules": {"B1": {"name": "NGF: Mouse NGF 2.5S (Alomone Labs), nerve growth factor used as stimulative substance injected into the testes (protein, UniProt P01139 122-241, looked up)", "Beta-nerve growth factor": "SSTHPVFHMGEFSVCDSVSVWVGDKTTATDIKGKEVTVLAEVNINNSVFRQYFFETKCRASNPVESGCRGIDSKHWNSYCTTTHTFVKALTTDEKQAAWRFIRIDTACVCVLSRKATRRG"}},
  "key": {"[1]": {"system": "Male Wistar rats", "experiment": "Intra testicular injection of acetic acid-induced characteristic pain or discomfort behavior", "assay_type": "in vivo, rat", "protocol": "(§1) Male Wistar rats aged 5 to 12 weeks (Charles River Japan) were used. Positions of the testes were confirmed by keeping the waist of each rat from the dorsal side, and a stimulative substance at a volume of 1 ml/kg was administered into the right and left testes using a syringe equipped with a 27 G needle.\nWhen the intra-testicular administration is achieved, the testes are swelled and become hard in touch. The individuals whose testes were not swelled after the injection were judged as failure in the injection and excluded from further analysis. In addition, dye mixed stimulative substance was injected into the testes and the distribution of the dye within the testes was checked after completion of the experiments to verify whether a stimulative substance was successfully administered or not.\nAll data was presented as mean and standard error of the mean. The unpaired parametric t-test was used to compare the two group. The parametric Dunnett's multiple comparison test was performed to compare the three groups or more. P<0.05 was considered statistically significant.\n(1) Dose-dependency of acetic acid: A rat was placed individually in a clear, round, plastic container (Natsume, Japan) for observation immediately after the intra testicular injection of 0.3, 1 and 3% acetic acid aqueous solutions or distilled water. […] Among these behaviors, the number of behaviors 1) to 3), frequently observed behavior, was counted from 5 to 20 minutes after the intra testicular injection of acetic acid.\n(2) Effects of indomethacin: Indomethacin at 5 mg/3 mL/kg (Sigma-Aldrich Japan, Japan) or 0.1% Na2CO3 aqueous solution (vehicle solution) was orally administered 1 hour before the intra testicular injection of 1% acetic acid. Number of the characteristic pain or discomfort behavior was measured in the same manner as described in the above section."}, "[2]": {"system": "Male Wistar rats", "details": "1% acetic acid 1 ml/kg intra testicular; 30 to 60 min after injection; distilled water group 97±8%; p<0.05", "source_text": "All data was presented as mean and standard error of the mean. The unpaired parametric t-test was used to compare the two group. P<0.05 was considered statistically significant."}, "[3]": {"system": "Male Wistar rats", "experiment": "Intra testicular injection of NGF-induced pain or discomfort behavior", "assay_type": "in vivo, rat", "details": "10 to 30 minutes after injection, p<0.01", "protocol": "as §1\nWhen the intra-testicular administration is achieved, the testes are swelled and become hard in touch. The individuals whose testes were not swelled after the injection were judged as failure in the injection and excluded from further analysis. […]\n(1) Dose dependency of NGF: Mouse NGF 2.5S (Alomone Labs, Ltd., Israel) at […] or saline (vehicle solution) was administered to both of the testes in rat. […] Thus, the total time the behavior of 1) was measured by a stopwatch from 10 to 30 minutes after the intra testicular injection.\n(2) Effects of morphine: Morphine (Takeda Chemical Industry, Ltd., Japan) at 5 mg/kg or saline (vehicle solution) was subcutaneously administered 30 minutes before the intra testicular injection of 100 μg/kg NGF. Total time of the above mentioned characteristic pain or discomfort behavior was measured from 10 to 30 minutes after the intra testicular injection of NGF. […]"}, "[4]": {"system": "Male Wistar rats", "experiment": "Effects of intra testicular injection of NGF on bladder capacity (conscious cystometry)", "assay_type": "in vivo, rat", "details": "100 μg/kg NGF (1 ml/kg) intra testicular; 30 to 60 min after injection; saline group 104±14%; p<0.01", "protocol": "P<0.05 was considered statistically significant.\nAfter that, “pre bladder capacity” was recorded for 1 hr. […] Physiological saline (1 ml/kg) or 100 μg/kg NGF (1 ml/kg) were injected into the testes. […] The bladder capacity in the saline treated group was 104±14%, thus showing no significant change. […] This change was significant in comparison with that of physiological saline treated group (FIG. 6)."}},
  "note": "Where two headings read alike, the source gives them in different places.",
  "data": [
    {"molecule": "CC(=O)O", "note": "[acetic acid]", "values": [
      {"measurement": "characteristic pain or discomfort behaviors", "setting": "[1]; 0.3% acetic acid aqueous solution, 1 ml/kg intra testicular, 5 to 20 minutes after injection, rat", "value": "No characteristic pain or discomfort behaviors was observed"},
      {"measurement": "number of pain or discomfort behaviors", "setting": "[1]; 1% acetic acid aqueous solution, 1 ml/kg intra testicular; behaviors 1) to 3) counted 5 to 20 minutes after injection, rat", "value": "16±2", "unit": "times"},
      {"measurement": "number of pain or discomfort behaviors", "setting": "[1]; 3% acetic acid aqueous solution, 1 ml/kg intra testicular; behaviors 1) to 3) counted 5 to 20 minutes after injection, rat", "value": "19±6", "unit": "times"},
      {"measurement": "bladder capacity, percent of the pre bladder capacity", "setting": "[2]", "value": "53±12", "unit": "%"}
    ]},
    {"molecule": "CN1CC[C@]23c4c5ccc(O)c4O[C@H]2[C@@H](O)C=C[C@H]3[C@H]1C5", "note": "[morphine, Morphine]", "values": [
      {"measurement": "total time of the characteristic pain or discomfort behavior", "setting": "[3]; 5 mg/kg subcutaneously 30 minutes before intra testicular 100 μg/kg NGF, vehicle group 167±31 seconds", "value": "9 ± 4", "unit": "s"}
    ]},
    {"molecule": "COc1ccc2c(c1)c(CC(=O)O)c(C)n2C(=O)c1ccc(Cl)cc1", "note": "[indomethacin, Indomethacin]", "values": [
      {"measurement": "number of the characteristic pain or discomfort behaviors", "setting": "[1]; 5 mg/3 mL/kg orally 1 hour before intra testicular 1% acetic acid, counted 5 to 20 minutes, vehicle group 19±6 times, p<0.01", "value": "3±2", "unit": "times"}
    ]},
    {"molecule": "B1", "values": [
      {"measurement": "total time of the characteristic pain or discomfort behavior (scratching the body vigorously with hindlimbs)", "setting": "[3]; 100 μg/ml/kg NGF intra testicular, vehicle group 1.0±0.4 second", "value": "155 ± 29", "unit": "s"},
      {"measurement": "bladder capacity, percent of the pre bladder capacity", "setting": "[4]", "value": "29±9", "unit": "%"}
    ]}
  ]
}
